Target: T1, androgen receptor (AR) (Homo sapiens, UniProt P10275, T878A)
T1 construct: endogenous in cells; host or cells: LNCaP
Assay: Reduction of androgen receptor (AR) expression levels in LNCaP cells (Western blot, DC50 and Dmax)
Assay type: cell-based
Conditions: 24 h of treatment, 0.01, 0.1, 1 and 10 µM, α-tubulin internal reference
Description: The human prostate cancer cell line LNCaP cells selected in this experiment were cultured in an RPMI-1640 culture medium containing 10% fetal bovine serum (Gibco, USA) in an incubator under the conditions of 37°C, 5% CO2 and 95% humidity. When the growth density reached 80%, the cells were inoculated into a 6-well plate with 5×10^5 cells per well. After culturing for 24 h, the culture medium was replaced with a culture medium containing the compounds so that the final concentrations of the compounds were 0.01, 0.1, 1 and 10 µM. After 24 h of treatment, the supernatant was removed, the cells were washed twice with PBS, and a RIPA lysis buffer containing a protease inhibitor and a phosphatase inhibitor was added to the cells. After lysis and centrifugation, the total protein extract was obtained. The concentration of the protein in the extract was determined by using the BCA method.
Protein electrophoresis was performed by using SDS-PAGE, followed by electrotransfer at a constant current of 200 mA for 90 min to transfer proteins onto the PVDF membrane. The PVDF membrane was placed in 5% skim milk and blocked for 1 h at room temperature. An anti-Androgen Receptor antibody [EPR1535(2)] (ab133273)(1:10000) was added for incubation overnight at 4°C. The membrane was washed with TBST for 3 times, with 10 min each time. The mixture of the membrane and a secondary antibody were incubated for 60 min at room temperature. The membrane was washed with TBST for 3 times, with 10 min each time. The ECL light-emitting liquid was dropwise added for exposure. Each sample was simultaneously detected using α-tubulin protein as an internal reference. The protein profile was analyzed for grayscale values using analysis software ImageJ. The gray scale correction value of each sample was calculated by using the formula: gray scale correction value = (gray scale value of the target protein/gray scale value of the corresponding internal reference) […] 10^3. Then, the calculated gray scale correction value was compared with a control gray scale correction value to calculate a degradation rate. Then, nonlinear curve fitting was performed on a logarithmic concentration-inhibition rate using Prism to obtain the DC50 and Dmax values of the compound.
Table 14 summarizes the evaluation of protein degraders PRTA-01 to 06 in reducing AR protein expression levels. DC50 represents the concentration of the protein degrader when it induces AR protein degradation to 50% of the initial level, and the level is classified as A (DC50<1 µM), B (DC50 1~10 µM), or C (DC50>10 µM). Dmax represents the proportion of the maximum degree of […] protein degradation induced by the protein degrader to the total AR protein amount, with the level graded as A (Dmax>85%), B (Dmax85-50%), or C (Dmax<50%). Table 14 Evaluation of protein degraders PRTA-01 to 06 in reducing AR protein expression levels

T1 sequence (P10275 whole entry T878A): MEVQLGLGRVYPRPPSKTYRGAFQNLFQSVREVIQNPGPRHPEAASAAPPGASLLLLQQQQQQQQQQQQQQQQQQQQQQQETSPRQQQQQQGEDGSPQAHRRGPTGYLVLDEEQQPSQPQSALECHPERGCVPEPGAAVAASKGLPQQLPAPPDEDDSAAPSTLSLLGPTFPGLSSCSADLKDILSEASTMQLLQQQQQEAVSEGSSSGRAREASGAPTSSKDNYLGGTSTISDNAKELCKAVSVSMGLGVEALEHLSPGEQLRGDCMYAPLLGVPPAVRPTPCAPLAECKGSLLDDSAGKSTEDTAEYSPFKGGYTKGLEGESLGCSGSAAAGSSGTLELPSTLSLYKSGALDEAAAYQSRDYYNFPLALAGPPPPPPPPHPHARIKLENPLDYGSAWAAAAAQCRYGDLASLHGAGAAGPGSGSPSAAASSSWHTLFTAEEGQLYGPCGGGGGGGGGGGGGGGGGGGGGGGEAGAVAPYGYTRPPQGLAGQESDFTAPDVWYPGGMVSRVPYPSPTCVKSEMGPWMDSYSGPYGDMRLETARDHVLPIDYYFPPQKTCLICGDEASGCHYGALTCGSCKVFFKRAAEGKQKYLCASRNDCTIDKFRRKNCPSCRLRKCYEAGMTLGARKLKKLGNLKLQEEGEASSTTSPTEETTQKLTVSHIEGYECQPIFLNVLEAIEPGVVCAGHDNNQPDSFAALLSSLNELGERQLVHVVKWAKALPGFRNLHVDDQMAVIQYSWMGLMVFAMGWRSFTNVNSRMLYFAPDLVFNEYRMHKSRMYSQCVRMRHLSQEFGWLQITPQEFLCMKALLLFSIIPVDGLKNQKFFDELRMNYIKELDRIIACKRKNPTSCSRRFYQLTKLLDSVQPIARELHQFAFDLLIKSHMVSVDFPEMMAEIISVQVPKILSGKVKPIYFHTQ
T1 sequence (Q96SW2 whole entry partner): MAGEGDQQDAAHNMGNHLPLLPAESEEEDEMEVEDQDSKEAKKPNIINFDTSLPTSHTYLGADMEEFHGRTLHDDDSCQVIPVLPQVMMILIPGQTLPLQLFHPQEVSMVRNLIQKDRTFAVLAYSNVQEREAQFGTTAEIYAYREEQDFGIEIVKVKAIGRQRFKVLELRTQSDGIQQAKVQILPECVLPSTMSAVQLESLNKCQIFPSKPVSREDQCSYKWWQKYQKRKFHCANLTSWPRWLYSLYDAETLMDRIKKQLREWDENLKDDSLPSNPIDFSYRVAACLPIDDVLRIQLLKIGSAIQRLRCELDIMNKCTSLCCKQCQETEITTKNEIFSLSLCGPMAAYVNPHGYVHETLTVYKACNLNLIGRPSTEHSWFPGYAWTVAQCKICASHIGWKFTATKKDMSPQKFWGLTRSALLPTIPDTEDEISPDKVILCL

Row | SMILES | DC50 [nM] | Dmax [%]
1 | N#Cc1ccc(O[C@H]2CC[C@H](NC(=O)c3ccc(N4CCN(CC5CCN(c6ccc(C7CCC(=O)NC7=O)nn6)CC5)CC4)cc3)CC2)cc1Cl (stereo partly drawn) [PRTA-01] | < 1000 | 50 to 85
2 | N#Cc1ccc(O[C@H]2CC[C@H](NC(=O)c3ccc(N4CCC(CN5CCN(c6ccc(N7CCC(=O)NC7=O)nn6)CC5)CC4)nn3)CC2)cc1Cl [PRTA-03] | < 1000 | > 85
3 | Cc1cc(N2CCN(CC3CCN(c4ccc(C(=O)N[C@H]5CC[C@H](Oc6ccc(C#N)c(Cl)c6)CC5)nn4)CC3)CC2)nnc1C1CCC(=O)NC1=O (stereo partly drawn) [PRTA-04] | 1000 to 10000 | 50 to 85

Continued, values first:

Row | DC50 [nM] | Dmax [%] | SMILES
4 | < 1000 | > 85 | N#Cc1ccc(OC2CCC(NC(=O)c3ccc(N4CCC(CN5CCN(c6ccc(C7CCC(=O)NC7=O)nn6)CC5)CC4)nn3)CC2)cc1Cl (stereo not drawn) [PRTA-02]
5 | < 1000 | 50 to 85 | N#Cc1ccc(O[C@H]2CC[C@H](NC(=O)c3ccc(N4CCC(CN5CC6(C5)CN(c5ccc(C7CCC(=O)NC7=O)nn5)C6)CC4)cc3)CC2)cc1Cl (stereo partly drawn) [PRTA-05]
6 | < 1000 | > 85 | N#Cc1ccc(O[C@H]2CC[C@H](NC(=O)c3ccc(N4CCC(n5cc(C#Cc6ccc(C7CCC(=O)NC7=O)nn6)cn5)CC4)cc3)CC2)cc1Cl (stereo partly drawn) [PRTA-06]
